According to ChEMBL document CHEMBL5528016, “Design, synthesis and evaluation of novel deferasirox derivatives with high antifungal potency in vitro and in vivo” (Eur J Med Chem, 2024):
Converted amounts (≈) assume the structure as drawn.

Assays:
Assay type in all cases: functional
[1] = system: Cryptococcus neoformans; test: Antifungal activity against Cryptococcus neoformans H99 assessed as reduction in fungal growth incubated for 72 hrs by broth microdilution method
[2] = system: Candida albicans; test: Antifungal activity against Candida albicans SC5314 assessed as reduction in fungal growth incubated for 72 hrs by broth microdilution method
[3] = system: Pichia kudriavzevii; test: Antifungal activity against Pichia kudriavzevii 4946 assessed as reduction in fungal growth incubated for 72 hrs by broth microdilution method
[4] = system: Candida tropicalis; test: Antifungal activity against Candida tropicalis 2718 assessed as reduction in fungal growth incubated for 72 hrs by broth microdilution method
[5] = system: Nakaseomyces glabratus; test: Antifungal activity against Candida glabrata 537 assessed as reduction in fungal growth incubated for 72 hrs by broth microdilution method
[6] = system: [Candida] auris; test: Antifungal activity against Candida auris D12 assessed as reduction in fungal growth incubated for 72 hrs by broth microdilution method; conditions: Candidozyma auris
[7] = system: Candida parapsilosis; test: Antifungal activity against Candida parapsilosis ATCC 22019 assessed as reduction in fungal growth incubated for 72 hrs by broth microdilution method; conditions: Lodderomyces parapsilosis

Compound | MIC [1] | other results
O=C(NCCN1CCOCC1)c1cccc(-n2nc(-c3ccccc3O)nc2-c2ccccc2O)c1 | 1 µg/mL (≈ 2.06 µM) | –
O=C(NCc1ccccn1)c1ccc(-n2nc(-c3ccccc3O)nc2-c2ccccc2O)cc1 | 8 µg/mL (≈ 17.3 µM) | –
O=C(NCCc1ccccn1)c1ccc(-n2nc(-c3ccccc3O)nc2-c2ccccc2O)cc1 | 0.5 µg/mL (≈ 1.05 µM) | MIC [2]: 32 µg/mL (≈ 67 µM); MIC [3]: 4 µg/mL (≈ 8.38 µM); MIC [4]: 64 µg/mL (≈ 134 µM); MIC [5]: < 0.125 µg/mL; MIC [6]: > 64 µg/mL; MIC [7]: > 64 µg/mL
O=C(NCCCO)c1ccc(-n2nc(-c3ccccc3O)nc2-c2ccccc2O)cc1 | 2 µg/mL (≈ 4.65 µM) | –
O=C(NCCCC(F)(F)F)c1ccc(-n2nc(-c3ccccc3O)nc2-c2ccccc2O)cc1 | 8 µg/mL (≈ 16.6 µM) | –
O=C(NCc1ncccn1)c1ccc(-n2nc(-c3ccccc3O)nc2-c2ccccc2O)cc1 | 4 µg/mL (≈ 8.61 µM) | –
CN(C)CCNC(=O)c1ccc(-n2nc(-c3ccccc3O)nc2-c2ccccc2O)cc1 | 4 µg/mL (≈ 9.02 µM) | –
Cc1nccn1CCCNC(=O)c1ccc(-n2nc(-c3ccccc3O)nc2-c2ccccc2O)cc1 | 8 µg/mL (≈ 16.2 µM) | –
O=C(NCCNc1ncccn1)c1ccc(-n2nc(-c3ccccc3O)nc2-c2ccccc2O)cc1 | 0.5 µg/mL (≈ 1.01 µM) | MIC [2]: 32 µg/mL (≈ 64.8 µM); MIC [3]: 16 µg/mL (≈ 32.4 µM); MIC [4]: 8 µg/mL (≈ 16.2 µM); MIC [5]: 1 µg/mL (≈ 2.03 µM); MIC [6]: > 64 µg/mL; MIC [7]: > 64 µg/mL
O=C(NC1CCS(=O)(=O)C1)c1cccc(-n2nc(-c3ccccc3O)nc2-c2ccccc2O)c1 (stereo not drawn) | 4 µg/mL (≈ 8.15 µM) | –
NC(=O)c1ccc(-n2nc(-c3ccccc3O)nc2-c2ccccc2O)cc1 | 4 µg/mL (≈ 10.7 µM) | –
O=C(NC1CS(=O)(=O)C1)c1ccc(-n2nc(-c3ccccc3O)nc2-c2ccccc2O)cc1 | 1 µg/mL (≈ 2.1 µM) | –
O=C(O)c1cccc(-n2nc(-c3ccccc3O)nc2-c2ccccc2O)c1 | 4 µg/mL (≈ 10.7 µM) | –
O=C(N[C@@H]1CCOC1)c1ccc(-n2nc(-c3ccccc3O)nc2-c2ccccc2O)cc1 | 4 µg/mL (≈ 9.04 µM) | –
O=C(NCCCn1ccnc1)c1ccc(-n2nc(-c3ccccc3O)nc2-c2ccccc2O)cc1 | 8 µg/mL (≈ 16.6 µM) | –
C[N+]1(CCNC(=O)c2ccc(-n3nc(-c4ccccc4O)nc3-c3ccccc3O)cc2)CCOCC1.[I-] | 4 µg/mL | –
CC(C)(O)CNC(=O)c1ccc(-n2nc(-c3ccccc3O)nc2-c2ccccc2O)cc1 | 2 µg/mL (≈ 4.5 µM) | –
O=C(N[C@H]1CCOC1)c1ccc(-n2nc(-c3ccccc3O)nc2-c2ccccc2O)cc1 | 4 µg/mL (≈ 9.04 µM) | –
O=C1CC(NC(=O)c2ccc(-n3nc(-c4ccccc4O)nc3-c3ccccc3O)cc2)CN1 (stereo not drawn) | 4 µg/mL (≈ 8.78 µM) | –
O=C1C[C@@H](NC(=O)c2ccc(-n3nc(-c4ccccc4O)nc3-c3ccccc3O)cc2)CO1 | > 64 µg/mL | –

Further lines, with some results ahead:

MIC [1] | Compound | other results
4 µg/mL (≈ 9.34 µM) | CCCCNC(=O)c1ccc(-n2nc(-c3ccccc3O)nc2-c2ccccc2O)cc1 | –
2 µg/mL (≈ 4.37 µM) | O=C(NN1CCOCC1)c1ccc(-n2nc(-c3ccccc3O)nc2-c2ccccc2O)cc1 | –
4 µg/mL (≈ 9 µM) | COCCCNC(=O)c1ccc(-n2nc(-c3ccccc3O)nc2-c2ccccc2O)cc1 | –
1 µg/mL (≈ 2 µM) | O=C(NCCCN1CCOCC1)c1ccc(-n2nc(-c3ccccc3O)nc2-c2ccccc2O)cc1 | –
0.25 µg/mL (≈ 0.517 µM) | CN1CCCC(CNC(=O)c2ccc(-n3nc(-c4ccccc4O)nc3-c3ccccc3O)cc2)C1 (stereo not drawn) | MIC [2]: 32 µg/mL (≈ 66.2 µM); MIC [3]: 16 µg/mL (≈ 33.1 µM); MIC [4]: 32 µg/mL (≈ 66.2 µM); MIC [5]: < 0.125 µg/mL; MIC [6]: > 64 µg/mL; MIC [7]: 64 µg/mL (≈ 132 µM)
1 µg/mL (≈ 2.25 µM) | CCOCCNC(=O)c1ccc(-n2nc(-c3ccccc3O)nc2-c2ccccc2O)cc1 | –
1 µg/mL (≈ 2.5 µM) | CCNC(=O)c1ccc(-n2nc(-c3ccccc3O)nc2-c2ccccc2O)cc1 | –
1 µg/mL (≈ 2.07 µM) | O=C(NCCN1CCCCC1)c1ccc(-n2nc(-c3ccccc3O)nc2-c2ccccc2O)cc1 | –
4 µg/mL (≈ 8.27 µM) | CN1CCC(CNC(=O)c2ccc(-n3nc(-c4ccccc4O)nc3-c3ccccc3O)cc2)CC1 | –
4 µg/mL (≈ 9.61 µM) | O=C(NCCO)c1ccc(-n2nc(-c3ccccc3O)nc2-c2ccccc2O)cc1 | –
